Data on twelve molecules can be found in ChEMBL document CHEMBL1201862, “PubChem BioAssay data set” (2004).

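1) Cells in 96-well plates. 2) Compound, 48 h, 5 concentrations. 3) Linear interpolation between surrounding doses. 4) Unreached endpoint = highest concentration. GI50: concentration for 50% inhibition of growth.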 Active and inactive are the calls of the source. Rule as the data show it: active = GI50 up to about 1.1 µM and inactive = higher. Where only a bound is given, the exact number is not on record here.

Among the test systems are KM12; TK-10; MDA-MB-231; RXF 393; HCT-15; PC-3; SK-MEL-5; OVCAR-8; MDA-N; HCT-116; COLO 205; NCI/ADR-RES; RPMI-8226; BT-549; OVCAR-3; Malme-3M; HL-60; UACC-62.
What all share (assay): NCI anticancer screen, dose series, 48 h

For `Cc1ccc(S(=O)(=O)NCCSS(=O)(=O)c2ccc(C)cc2)cc1`, the GI50 with KM12 is 28.1 µM (inactive); with TK-10, > 100 µM (inactive); in the assay on MDA-MB-231, 37.7 µM (inactive); in the assay on RXF 393, 33.8 µM (inactive); with HCT-15 it was 18.7 µM; with PC-3 it was 27.6 µM (inactive). The GI50 in the assay on SK-MEL-5 is 20.7 µM (inactive); in the assay on OVCAR-8, 37.9 µM (inactive); in the assay with MDA-N it was 23.1 µM (inactive); in the assay with HCT-116, 15.1 µM (inactive); in the assay with COLO 205, 56 µM (inactive); with NCI/ADR-RES it was 25.8 µM (inactive).
As to `COC(=O)c1ccccc1CC(Cc1ccccc1)C(=O)OC` (stereo unspecified), the GI50 is 27.6 µM (inactive) in the assay with RPMI-8226; 87.3 µM (inactive) with KM12; 99.1 µM (inactive) in the assay on TK-10; > 100 µM (inactive) in the assay on BT-549; > 100 µM (inactive) in the assay on MDA-MB-231; 33.7 µM (inactive) with RXF 393. Moreover, the GI50 in the assay with HCT-15 was 31.3 µM; in the assay on PC-3 it was 47.1 µM (inactive); in the assay on SK-MEL-5 it was 22.8 µM (inactive); with OVCAR-8, 87.1 µM (inactive); in the assay on OVCAR-3, 58.1 µM (inactive); in the assay with HCT-116, 47.9 µM (inactive). Further, the GI50 is 64.6 µM (inactive) in the assay on COLO 205, 64.4 µM (inactive) in the assay on Malme-3M, 42.5 µM (inactive) in the assay on NCI/ADR-RES and 18.5 µM (inactive) with HL-60.
Take `COC1(OC)c2no[n+]([O-])c2CCC1O` (stereo unspecified): the GI50 was > 100 µM (inactive) in the assay on RPMI-8226; > 100 µM (inactive) in the assay with KM12; > 100 µM (inactive) in the assay with TK-10; > 100 µM (inactive) in the assay with MDA-MB-231; > 100 µM (inactive) in the assay on RXF 393; more than 100 µM with HCT-15. The GI50 in the assay with PC-3, with SK-MEL-5, in the assay with OVCAR-8, with MDA-N, with OVCAR-3 and in the assay on HCT-116 was > 100 µM (inactive) each time. For the same molecule, the GI50 in the assay on COLO 205, with UACC-62, in the assay with Malme-3M and in the assay with NCI/ADR-RES was > 100 µM (inactive) in each case.
For `CCCCNC(=O)c1cc(S(=O)(=O)n2ccnc2O)c(SC)cc1Cl`, the GI50 with RPMI-8226, in the assay with KM12, in the assay on TK-10, in the assay on BT-549, with MDA-MB-231 and in the assay on RXF 393 was > 100 µM (inactive) in each case. For the same molecule, the GI50 in the assay with HCT-15 is more than 100 µM; in the assay with PC-3, > 100 µM (inactive); in the assay with SK-MEL-5, > 100 µM (inactive); in the assay with OVCAR-8, > 100 µM (inactive); with MDA-N, > 100 µM (inactive); with OVCAR-3, > 100 µM (inactive). The GI50 in the assay on HCT-116, in the assay with COLO 205, in the assay on UACC-62, in the assay with Malme-3M, in the assay on NCI/ADR-RES and with HL-60 was > 100 µM (inactive) each time.
`COc1ccc2c(O)c3[n+](cc2c1OC)CCc1cc2c(cc1-3)OCO2`: the GI50 with RPMI-8226 was 84.3 µM (inactive); in the assay on KM12, 66.1 µM (inactive); with TK-10, > 100 µM (inactive); with BT-549, 72.4 µM (inactive); with MDA-MB-231, > 100 µM (inactive); in the assay on RXF 393 it was 25.4 µM (inactive). Moreover, the GI50 in the assay on HCT-15 was 84.3 µM; with PC-3, > 100 µM (inactive); in the assay on SK-MEL-5, 99.1 µM (inactive); in the assay on OVCAR-8 it was > 100 µM (inactive); in the assay on MDA-N, 33.6 µM (inactive); in the assay on OVCAR-3, > 100 µM (inactive). The GI50 in the assay on HCT-116 is 41.8 µM (inactive); with COLO 205 it was > 100 µM (inactive); in the assay with UACC-62 it was 37.4 µM (inactive); in the assay with NCI/ADR-RES it was > 100 µM (inactive); in the assay on HL-60, 33.2 µM (inactive).
For `O=C1CCCC/C1=C1/SC(=N/c2ccccc2)/C(=N\c2ccccc2)N1c1ccccc1`, the GI50 with RPMI-8226 is > 100 µM (inactive); in the assay with KM12 it was > 100 µM (inactive); in the assay on BT-549, > 100 µM (inactive); in the assay with MDA-MB-231, > 100 µM (inactive); with RXF 393, 0.0378 µM (active); in the assay on HCT-15, more than 100 µM. The GI50 in the assay on PC-3 was > 10 µM (inactive); in the assay with SK-MEL-5 it was > 10 µM (inactive); in the assay with OVCAR-8, > 100 µM (inactive); in the assay with MDA-N it was > 100 µM (inactive); in the assay with OVCAR-3, 40.4 µM (inactive); with HCT-116, > 100 µM (inactive). Besides, the GI50 in the assay on COLO 205 was > 100 µM (inactive); in the assay on UACC-62 it was 38.1 µM (inactive); with Malme-3M it was > 100 µM (inactive); with NCI/ADR-RES, > 100 µM (inactive); in the assay on HL-60, > 100 µM (inactive).
As to `C=CCOC1OC(CS(=O)(=O)O)C(O)C(O)C1O` (stereo unspecified), the GI50 in the assay with RPMI-8226, with KM12, with TK-10, with BT-549, in the assay with MDA-MB-231 and in the assay on RXF 393 was > 100 µM (inactive) each time. Also, the GI50 is more than 100 µM with HCT-15; > 100 µM (inactive) in the assay on PC-3; > 100 µM (inactive) in the assay with SK-MEL-5; > 100 µM (inactive) with OVCAR-8; > 100 µM (inactive) with MDA-N; > 100 µM (inactive) in the assay on OVCAR-3. Moreover, the GI50 with HCT-116, in the assay with COLO 205, in the assay with UACC-62, in the assay on Malme-3M, in the assay with NCI/ADR-RES and with HL-60 was > 100 µM (inactive) throughout.
Regarding `O=c1c(-c2ccccc2)c(SCCN2CCOCC2)n(-c2ccccc2)c(=S)n1-c1ccccc1`, the GI50 with RPMI-8226 was > 100 µM (inactive); in the assay on KM12, > 100 µM (inactive); with TK-10, 46.6 µM (inactive); in the assay with BT-549, > 100 µM (inactive); with MDA-MB-231 it was 83.9 µM (inactive); with RXF 393 it was 46.9 µM (inactive). Also, the GI50 was more than 100 µM with HCT-15; > 100 µM (inactive) with PC-3; > 100 µM (inactive) in the assay on SK-MEL-5; 63 µM (inactive) in the assay with OVCAR-8; > 100 µM (inactive) in the assay with OVCAR-3; > 100 µM (inactive) in the assay with COLO 205. For the same molecule, the GI50 in the assay on UACC-62 is 89.1 µM (inactive); with Malme-3M it was > 100 µM (inactive); in the assay with NCI/ADR-RES it was > 100 µM (inactive); with HL-60, > 100 µM (inactive).
For `COc1ccc(/C=C2\CCC/C(=C\c3ccc(O)c(CN4CCCCC4)c3)C2=O)cc1`, the GI50 with RPMI-8226 was 3.89 µM (inactive); with KM12, 2.3 µM (inactive); with TK-10, 5.77 µM (inactive); in the assay on BT-549, 4.65 µM (inactive); in the assay on MDA-MB-231, 4.09 µM (inactive); in the assay with RXF 393, 20.3 µM (inactive). For the same molecule, the GI50 with HCT-15 is 3.52 µM; in the assay with PC-3, 4.74 µM (inactive); with SK-MEL-5 it was 4.25 µM (inactive); in the assay on OVCAR-8, 2.81 µM (inactive); with MDA-N, 3.55 µM (inactive); with OVCAR-3 it was 10.8 µM (inactive). Also, the GI50 was 2.82 µM (inactive) in the assay on HCT-116; 8.09 µM (inactive) in the assay on COLO 205; 3.9 µM (inactive) in the assay with UACC-62; 11.5 µM (inactive) with Malme-3M; 2.77 µM (inactive) with NCI/ADR-RES; 6.93 µM (inactive) in the assay with HL-60.
Consider `Nc1nc2ccc3ccccc3c2[nH]1`, for which the GI50 was > 10 µM (inactive) with RPMI-8226; > 10 µM (inactive) with KM12; > 10 µM (inactive) in the assay on TK-10; > 10 µM (inactive) with MDA-MB-231; > 10 µM (inactive) with RXF 393; more than 10 µM in the assay on HCT-15. The GI50 in the assay on PC-3, with SK-MEL-5, in the assay with OVCAR-8, in the assay with MDA-N, in the assay on OVCAR-3 and in the assay with HCT-116 was > 10 µM (inactive) each time. The GI50 in the assay on COLO 205, in the assay on UACC-62, in the assay with Malme-3M, with NCI/ADR-RES and in the assay with HL-60 was > 10 µM (inactive) in each case.
Turning to `CS(C)(=O)=Nn1c(=O)n2n(c1=O)C1c3ccccc3C2c2ccccc21`, the GI50 is > 100 µM (inactive) with RPMI-8226; > 100 µM (inactive) in the assay with TK-10; > 100 µM (inactive) in the assay on MDA-MB-231; > 100 µM (inactive) in the assay with RXF 393; more than 100 µM in the assay on HCT-15; > 100 µM (inactive) in the assay on PC-3. In addition, the GI50 was 43.7 µM (inactive) in the assay with SK-MEL-5; > 100 µM (inactive) with OVCAR-8; > 100 µM (inactive) in the assay with MDA-N; > 100 µM (inactive) in the assay with OVCAR-3; > 100 µM (inactive) in the assay on COLO 205; > 100 µM (inactive) in the assay with UACC-62. The GI50 in the assay with Malme-3M, with NCI/ADR-RES and with HL-60 was > 100 µM (inactive) throughout.
Regarding `C1CSCCSCCSCCSC1`, the GI50 in the assay on RPMI-8226, with KM12, with TK-10, in the assay with BT-549, with MDA-MB-231 and in the assay with RXF 393 was > 100 µM (inactive) throughout. Besides, the GI50 was more than 100 µM in the assay with HCT-15; > 100 µM (inactive) with PC-3; > 100 µM (inactive) in the assay on SK-MEL-5; > 100 µM (inactive) in the assay on OVCAR-8; > 100 µM (inactive) with MDA-N; > 100 µM (inactive) with OVCAR-3. In addition, the GI50 in the assay with HCT-116, in the assay on COLO 205, with UACC-62 and in the assay on NCI/ADR-RES was > 100 µM (inactive) throughout.
